Structures can show the parent of a compound that is named as a salt.
What was measured:
[1] = Inhibition of pig TNAP at pH 10.4 by UV-visible spectrophotometric assay; set-up: species or system Sus scrofa
[2] = Inhibition of pig TNAP at pH 7.8 by UV-visible spectrophotometric assay; set-up: species or system Sus scrofa

Row | IC50 [1] | IC50 [2] | Compound
1 | 42 µM | 84 µM | C1=CN2CC(c3ccsc3)N=C2S1 (racemic)
2 | > 800 µM | > 800 µM | c1csc(C2CN3CCSC3=N2)c1 (racemic)
3 | > 800 µM | > 800 µM | c1cc(-c2cn3c(n2)SCC3)cs1
4 | > 800 µM | > 800 µM | c1cc(-c2cn3ccsc3n2)cs1
5 | 331 µM | 260 µM | C1=CN2CC(c3cccs3)N=C2S1 (racemic)
6 | 408 µM | 192 µM | c1cc(C2CN3CCSC3=N2)cs1 (racemic)
7 | > 800 µM | > 800 µM | C1=C(c2ccsc2)N2CCN=C2S1
8 | 93 µM | 78 µM | c1ccc([C@H]2CN3CCSC3=N2)cc1 [LEVAMISOLE HYDROCHLORIDE]

Reference: ChEMBL document CHEMBL1759989, “Synthesis and evaluation of thiophenyl derivatives as inhibitors of alkaline phosphatase” (Bioorg Med Chem Lett, 2011)
